The structures appear in SMILES notation. Residues, ends and D or L forms follow the SMILES beside them.

9 compounds from patent US10124033B2, “Peptides and methods of use” (BAXALTA INCORPORATED, priority 2014, dated 2018) can be followed below.

In the first assay the target is T1, Protein S (Homo sapiens, UniProt P07225).
T1 sequence (P07225 41-676 limits assumed): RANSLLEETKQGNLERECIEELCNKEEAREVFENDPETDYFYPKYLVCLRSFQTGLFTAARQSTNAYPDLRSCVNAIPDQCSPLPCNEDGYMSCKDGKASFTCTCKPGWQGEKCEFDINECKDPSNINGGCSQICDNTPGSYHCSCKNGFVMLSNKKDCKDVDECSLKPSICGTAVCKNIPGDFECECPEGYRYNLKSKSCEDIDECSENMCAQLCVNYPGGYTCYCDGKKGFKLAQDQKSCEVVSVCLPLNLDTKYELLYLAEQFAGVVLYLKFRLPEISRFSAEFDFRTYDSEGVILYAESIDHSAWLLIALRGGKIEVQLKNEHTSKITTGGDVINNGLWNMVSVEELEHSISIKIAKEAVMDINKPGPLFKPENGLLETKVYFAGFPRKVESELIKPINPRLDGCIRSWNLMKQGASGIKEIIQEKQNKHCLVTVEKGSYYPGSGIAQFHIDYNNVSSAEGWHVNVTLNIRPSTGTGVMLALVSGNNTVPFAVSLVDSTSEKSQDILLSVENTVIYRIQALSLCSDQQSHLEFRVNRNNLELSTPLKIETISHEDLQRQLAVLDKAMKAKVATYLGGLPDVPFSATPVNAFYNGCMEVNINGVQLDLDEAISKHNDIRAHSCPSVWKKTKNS
Description: LANCE IC50 assay (competition TR-FRET) with tracer JBS0684. Particulars: Table 4, multiple substitutions in JBS2572; read-out: LANCE IC50. Format: binding. On the procedure:
Peptides also were characterized in a competition, homogenous europium-based TR-FRET assay (LANCE IC50 assay) using JBS0684 as a tracer (i.e., competitor for Protein S binding). The following reagents were mixed together in a Perkin-Elmer ProxiPlate MTP well (indicated concentration is the final concentration): Eu-labeled Protein S (10 nM), Ulight™-labeled Streptavidin (100 nM), tracer (JBS0684 (300 nM)), and peptide (titrated in three-fold dilution steps). The final volume was 50 μl/well. The reaction mix was incubated for 1 hour at room temperature, then the fluorescence emission at 665 nm was recorded on a multi-mode reader (SpectraMax® M5, Molecular Devices) using the following instrument settings: Ex 340 nm, Em 665 nm, delay 50 μsec, integration 100 μsec, reads 100. Binding of tracer peptides to soluble europium-labeled Protein S was detected by Streptavidin labeled with an acceptor fluorophor (ULight™). Inhibition of tracer-binding to Protein S by a non-biotinylated peptide results in a decrease of TR-FRET between the Eu-labeled Protein S and ULight™-labeled Streptavidin. IC50 values were obtained from peptide titration curves at constant tracer concentration using non-linear regression of the fluorescence emission signals at 665 nm.
On the technique in general: TR-FRET usually uses a lanthanide donor and a delayed reading to cut background.
In the case of `CSCC[C@H](NC(=O)[C@H](Cc1ccc(O)cc1)NC(=O)[C@@H](NC(=O)[C@H](CC(=O)O)NC(=O)[C@H](Cc1ccccc1)NC(=O)[C@H](CC(N)=O)NC(=O)[C@H](Cc1ccc(O)cc1)NC(=O)[C@H](CC(=O)O)NC(=O)[C@H](Cc1ccc(O)cc1)NC(=O)[C@H](Cc1c[nH]c2ccccc12)NC(=O)CNC(=O)[C@H](C)NC(=O)[C@H](CO)NC(=O)[C@@H](NC(=O)[C@H](CC(C)C)NC(=O)CNC(=O)[C@@H](NC(C)=O)[C@@H](C)O)C(C)C)[C@@H](C)O)C(=O)N[C@@H](CCC(=O)O)C(=O)N[C@@H](Cc1ccccc1)C(=O)N[C@H](C(N)=O)[C@@H](C)O` [JBS3186] (Ac-TGLVSAGWYDYNFDTYMEFT-NH2), the IC50 worked out at 2.6 nM.
Turning to `CC(=O)N[C@@H](Cc1ccc(O)cc1)C(=O)NCC(=O)N[C@@H](CC(C)C)C(=O)N[C@H](C(=O)N[C@@H](CO)C(=O)N[C@@H](C)C(=O)NCC(=O)N[C@@H](Cc1c[nH]c2ccccc12)C(=O)N[C@@H](Cc1ccc(O)cc1)C(=O)N[C@@H](CC(=O)O)C(=O)N[C@@H](Cc1ccc(O)cc1)C(=O)N[C@@H](CC(N)=O)C(=O)N[C@@H](Cc1ccccc1)C(=O)N[C@@H](CC(=O)O)C(=O)N[C@H](C(=O)N[C@@H](Cc1ccc(O)cc1)C(=O)N[C@@H](CCCNC(=N)N)C(=O)N[C@@H](CCC(=O)O)C(=O)N[C@@H](Cc1ccccc1)C(=O)N[C@H](C(N)=O)[C@@H](C)O)[C@@H](C)O)C(C)C` [JBS3190] (Ac-YGLVSAGWYDYNFDTYREFT-NH2), the IC50 came out at 1.6 nM.
Same read-out and setting: the result for `CC(=O)N[C@@H](Cc1ccc(O)cc1)C(=O)NCC(=O)N[C@@H](CC(C)C)C(=O)N[C@H](C(=O)N[C@@H](CO)C(=O)N[C@@H](C)C(=O)NCC(=O)N[C@@H](Cc1c[nH]c2ccccc12)C(=O)N[C@@H](Cc1ccc(O)cc1)C(=O)N[C@@H](CC(=O)O)C(=O)N[C@@H](Cc1ccc(O)cc1)C(=O)N[C@@H](CC(N)=O)C(=O)N[C@@H](Cc1ccccc1)C(=O)N[C@@H](CC(=O)O)C(=O)N[C@H](C(=O)N[C@@H](Cc1ccc(O)cc1)C(=O)N[C@@H](CCCNC(=N)N)C(=O)N[C@@H](CCC(=O)O)C(=O)N[C@@H](Cc1ccccc1)C(=O)N[C@H](C(N)=O)[C@@H](C)O)C(C)C)C(C)C` [JBS3191] (Ac-YGLVSAGWYDYNFDVYREFT-NH2) reads 1.6 nM.

The target in the next assay is T1, Protein S. As to the kind of experiment: competition (IC50) ELISA with biotinylated tracer peptide JBS0684. Format: binding. Conditions: competition ELISA, tracer JBS0684; re-synthesized peptides. The method, then:
The new peptide candidates were synthesized (purity >60%) and screened for affinity in a competitive binding assay (ELISA IC50) and activity in a thrombin generation assay (CAT). The competition (IC50) ELISA was performed using biotinylated tracer peptide JBS0684 to compete for Protein S-binding with candidate peptides. Peptides that compete with the tracer bind the same region of Protein S as the tracer (and each other). Ninety-six well PolySorp plates (Nunc) were coated with 3 μg/mL Protein S in coating buffer (15 mM Na2CO3, 35 mM NaHCO3, pH 9.6) over night. Plates were washed three times with wash buffer (HNaT: 175 mM NaCl, 25 mM HEPES, 5 mM CaCl2, 0.1% Tween 80, pH 7.35), and blocked with 100 μl 2% yeast extract in HNaT for at least 1 hour. Plates were then washed three times with HNaT. JBS0684 was applied at a concentration corresponding to the EC90 value determined in the binding ELISA. A competitor stock solution of peptide (10 mM) was diluted 1/33.3 in HNaT without HSA, and a serial ⅓ dilution was prepared with HNaT with 3% DMSO. The dilution was further diluted with the biotinylated tracer peptide in a ratio of 1:6 (20 μl competitor dilution and 100 μl tracer peptide). The mixture of competitor and tracer peptide was applied to the Protein S-coated microtiter plate and incubated for 1.5 hours. The plates were washed three times with HNaT. Peptide-Protein S binding was detected by applying HRP-conjugated streptavidin to the microtiter plate, incubating the mixture for one hour, washing the plate three times with HNaT, applying TMB (3,3′5,5′-Tetramethylbenzidin), and detecting the subsequent chromogenic conversion of TMB by HRP. IC50 measurements of peptides are provided herein (see, e.g., Table 3).
As for `CC(=O)N[C@H](C(=O)NCC(=O)N[C@@H](Cc1c[nH]cn1)C(=O)N[C@H](C(=O)N[C@@H](CO)C(=O)N[C@@H](C)C(=O)NCC(=O)N[C@@H](Cc1c[nH]c2ccccc12)C(=O)N[C@@H](Cc1ccc(O)cc1)C(=O)N[C@@H](CC(=O)O)C(=O)N[C@@H](Cc1ccc(O)cc1)C(=O)N[C@@H](CC(N)=O)C(=O)N[C@@H](Cc1ccccc1)C(=O)N[C@@H](CC(=O)O)C(=O)N[C@@H](C)C(=O)N[C@@H](Cc1ccc(O)cc1)C(=O)N[C@@H](CCCNC(=N)N)C(=O)N[C@@H](CCC(=O)O)C(=O)N[C@@H](Cc1ccccc1)C(=O)N[C@H](C(N)=O)[C@@H](C)O)C(C)C)[C@@H](C)O` [JBS2528] (Ac-TGHVSAGWYDYNFDAYREFT-NH2), the IC50 worked out at 5.2 nM.
Still for that read-out and setting: next, `CC(=O)N[C@H](C(=O)NCC(=O)N[C@@H](Cc1c[nH]cn1)C(=O)N[C@H](C(=O)N[C@@H](CO)C(=O)N[C@@H](C)C(=O)NCC(=O)N[C@@H](Cc1c[nH]c2ccccc12)C(=O)N[C@@H](Cc1ccc(O)cc1)C(=O)N[C@@H](CC(=O)O)C(=O)N[C@@H](Cc1ccc(O)cc1)C(=O)N[C@@H](CC(N)=O)C(=O)N[C@@H](CC(C)C)C(=O)N[C@@H](CC(=O)O)C(=O)N[C@@H](Cc1c[nH]cn1)C(=O)N[C@@H](Cc1ccc(O)cc1)C(=O)N[C@@H](CCCNC(=N)N)C(=O)N[C@@H](CCC(=O)O)C(=O)N[C@@H](Cc1ccccc1)C(=O)N[C@H](C(N)=O)[C@@H](C)O)C(C)C)[C@@H](C)O` [JBS2582] (Ac-TGHVSAGWYDYNLDHYREFT-NH2): 2.3 nM; `CC(=O)N[C@H](C(=O)NCC(=O)N[C@@H](CCCCN)C(=O)N[C@H](C(=O)N[C@@H](CO)C(=O)N[C@@H](C)C(=O)NCC(=O)N[C@@H](Cc1c[nH]c2ccccc12)C(=O)N[C@@H](Cc1ccc(O)cc1)C(=O)N[C@@H](CC(=O)O)C(=O)N[C@@H](Cc1ccc(O)cc1)C(=O)N[C@@H](CC(N)=O)C(=O)N[C@@H](Cc1ccccc1)C(=O)N[C@@H](CC(=O)O)C(=O)N[C@@H](Cc1c[nH]cn1)C(=O)N[C@@H](Cc1ccc(O)cc1)C(=O)N[C@@H](CCCNC(=N)N)C(=O)N[C@@H](CCC(=O)O)C(=O)N[C@@H](Cc1ccccc1)C(=O)N[C@H](C(N)=O)[C@@H](C)O)C(C)C)[C@@H](C)O` [JBS2592] (Ac-TGKVSAGWYDYNFDHYREFT-NH2): 5.6 nM.
`CC(=O)N[C@H](C(=O)NCC(=O)N[C@@H](Cc1c[nH]cn1)C(=O)N[C@H](C(=O)N[C@@H](CO)C(=O)N[C@@H](C)C(=O)NCC(=O)N[C@@H](Cc1c[nH]c2ccccc12)C(=O)N[C@@H](Cc1ccc(O)cc1)C(=O)N[C@@H](CC(=O)O)C(=O)N[C@@H](Cc1ccc(O)cc1)C(=O)N[C@@H](CC(N)=O)C(=O)N[C@@H](Cc1ccccc1)C(=O)N[C@@H](CC(=O)O)C(=O)N[C@@H](Cc1c[nH]cn1)C(=O)N[C@@H](Cc1ccc(O)cc1)C(=O)N[C@@H](Cc1ccccc1)C(=O)N[C@@H](CCC(=O)O)C(=O)N[C@@H](Cc1ccccc1)C(=O)N[C@H](C(N)=O)[C@@H](C)O)C(C)C)[C@@H](C)O` [JBS2625] (Ac-TGHVSAGWYDYNFDHYFEFT-NH2): the IC50 came out at 1.6 nM.
Take `CC(=O)N[C@H](C(=O)N1CCC[C@H]1C(=O)N[C@@H](Cc1c[nH]cn1)C(=O)N[C@H](C(=O)N[C@@H](CO)C(=O)N[C@@H](C)C(=O)NCC(=O)N[C@@H](Cc1c[nH]c2ccccc12)C(=O)N[C@@H](Cc1ccc(O)cc1)C(=O)N[C@@H](CC(=O)O)C(=O)N[C@@H](Cc1ccc(O)cc1)C(=O)N[C@@H](CC(N)=O)C(=O)N[C@@H](Cc1ccccc1)C(=O)N[C@@H](CC(=O)O)C(=O)N[C@@H](Cc1c[nH]cn1)C(=O)N[C@@H](Cc1ccc(O)cc1)C(=O)N[C@@H](CCCNC(=N)N)C(=O)N[C@@H](CCC(=O)O)C(=O)N[C@@H](Cc1ccccc1)C(=O)N[C@H](C(N)=O)[C@@H](C)O)C(C)C)[C@@H](C)O` [JBS2629] (Ac-TPHVSAGWYDYNFDHYREFT-NH2): the IC50 stood at 3.1 nM.
As for `CC(=O)N[C@H](C(=O)NCC(=O)N[C@@H](Cc1c[nH]cn1)C(=O)N[C@H](C(=O)N[C@@H](CO)C(=O)N[C@@H](C)C(=O)NCC(=O)N[C@@H](Cc1c[nH]c2ccccc12)C(=O)N[C@@H](Cc1ccc(O)cc1)C(=O)N[C@@H](CC(=O)O)C(=O)N[C@@H](Cc1ccc(O)cc1)C(=O)N[C@@H](CC(N)=O)C(=O)N[C@@H](Cc1ccccc1)C(=O)N[C@@H](CC(=O)O)C(=O)N[C@@H](CO)C(=O)N[C@@H](Cc1ccc(O)cc1)C(=O)N[C@@H](CCCNC(=N)N)C(=O)N[C@@H](CCC(=O)O)C(=O)N[C@@H](Cc1ccccc1)C(=O)N[C@H](C(N)=O)[C@@H](C)O)C(C)C)[C@@H](C)O` [JBS2661] (Ac-TGHVSAGWYDYNFDSYREFT-NH2), the half-inhibitory concentration (IC50) was determined as 2.8 nM.

One may read the IC50 as the concentration that gives 50% inhibition.
